What was measured:
[1] = system: mature adipocytes (3T3-L1 cells); assay: Synergistic action of 4-hydroxyderricin and insulin to enhance glucose uptake; type: cell-based
Description: As the evaluation of synergistic action of 4-hydroxyderricin prepared in Example 2 and a low-concentration insulin to enhance glucose uptake, the amount of 2-deoxyglucose uptake into mature adipocytes during the stimulation with the sample was determined partly in accordance with the method described in Example 83.
The mature adipocytes were prepared according to the method described in item (1) of Example 83.
After the termination of the culture, the medium was removed, and the cells were washed twice with a 0.1% (w/v) bovine serum albumin (manufactured by Sigma, A8022)-containing Dulbecco's modified Eagle's medium. Thereafter, 1 mL of the same medium containing a solution of 4-hydroxyderricin in dimethyl sulfoxide having a final concentration of 5 μM was added thereto. The cells were cultured overnight at 37° C. in the presence of 5% carbon dioxide gas. Here, a group without addition of 4-hydroxyderricin was set as a negative control. After the overnight culture, the cells were washed twice with a HEPES buffered saline (140 mM NaCl, 5 mM KCl, 2.5 mM MgSO4, 1 mM CaCl2, 20 mM HEPES-Na (pH 7.4)). The amount 0.9 mL of the same buffer containing 4-hydroxyderricin having a final concentration of 5 μM was added thereto. […] Thereafter, 2-deoxy-[1,2-^3H(N)]-glucose subjected to uptake into the adipocytes was determined in the same manner as the method described in item (2) of Example 83.

[2] = system: type II diabetes model mouse; assay: Glucose tolerance test, 4-hydroxyderricin and combined use with xanthoangelol; type: in vivo; settings: male KK-Ay mice
Description: Amelioration effects for glucose tolerance by 4-hydroxyderricin and combined use of 4-hydroxyderricin and xanthoangelol were examined using a type II diabetes model mouse. Experiments were carried out with five male 12-week old KK-Ay mice (CLEA Japan, Inc.) per group. 4-Hydroxyderricin which was previously suspended or dissolved in an olive oil so as to have a concentration of 4% (w/v) was forcibly orally administered to a group to be administered with 4-hydroxyderricin at 200 mg/kg once a day for consecutive days. 4-Hydroxyderricin and xanthoangelol which were each suspended or dissolved in an olive oil to 4% (w/v) were mixed in equal volumes, and the mixture was forcibly orally administered to a group to be administered with a combined use of 4-hydroxyderricin and xanthoangelol once a day for consecutive days so that each administration concentration became 100 mg/kg. An olive oil was administered to the mice in the control group at 5 mL/kg in the same manner. The mice were fasted over one night spanning from the fifteenth day to the sixteenth day from administration, and a glucose tolerance test was carried out. Four hours after the administration of the sample, a 10% glucose solution was intraperitoneally administered at 1 g/kg. Thirty minutes before glucose tolerance and 30 minutes after the tolerance, blood was collected from veins of the tail, and the blood glucose level was determined with a simple blood glucose meter, ACCU-CHEK Compact (Roche Diagnostic K.K.).

[3] = system: type II diabetes model mice; assay: Amelioration effects on diabetes of xanthoangelol (blood glucose level, serum insulin); type: in vivo; settings: female KK-Ay mice
Description: Pathological amelioration effects of xanthoangelol were examined using type II diabetes model mice. Experiments were carried out with five female 12-week old KK-Ay mice (CLEA Japan, Inc.) per group. Xanthoangelol was suspended or dissolved in an olive oil so as to have a concentration of 4% (w/v), and the suspension or solution was forcibly orally administered to the mice once a day at 200 mg/kg for consecutive days. The olive oil was administered to mice in the control group at 5 mL/kg in the same manner. On the day before the beginning of administration, on the fourth day and on the twenty-second day, the blood glucose level was determined in the same manner as in Example 88. In addition, on the twenty-second day, blood was simultaneously collected from abdominal cava, and the insulin concentration in serum was determined with Lebis Insulin Kit (Shibayagi Co., Ltd.). […] During the experimental period, no changes were found in body weight and general symptoms.

[4] = 200 mg/kg oral once a day in olive oil, mean ± standard error

SMILES	2-deoxy-[1,2-3H(N)]-glucose uptake on addition simultaneously with insulin ([1]; 4-hydroxyderricin 5 μM + insulin 0.01 μg/mL, versus each alone)	2-deoxy-[1,2-3H(N)]-glucose uptake ([1]; 4-hydroxyderricin 5 μM alone, compared to the negative control)	amelioration effects for glucose tolerance (in words) ([2]; 4-hydroxyderricin 200 mg/kg alone or combined use 100 mg/kg each)	Blood Glucose Level, Before Glucose Tolerance ([2]; 200 mg/kg oral once a day, sixteenth day, fasted, 30 minutes before glucose 1 g/kg i.p.)	Blood Glucose Level, 30 Minutes After Tolerance ([2]; 200 mg/kg oral once a day, sixteenth day, fasted, glucose 1 g/kg i.p.)	action of ameliorating insulin resistance ([3]; 200 mg/kg oral once a day)	blood glucose level and insulin concentration (in words) ([3]; 200 mg/kg oral once a day)	Blood Glucose Level, Fourth Day [3, 4]	Blood Glucose Level, Twenty-second Day [3, 4]	changes in body weight and general symptoms ([3]; 200 mg/kg oral once a day, experimental period)	Blood Glucose Level, Previous Day ([3]; day before beginning of administration, 200 mg/kg oral once a day in olive oil, mean ± standard error)	Insulin (concentration in serum) ([3]; twenty-second day, 200 mg/kg oral once a day in olive oil, mean ± standard error)
COc1ccc(C(=O)/C=C/c2ccc(O)cc2)c(O)c1CC=C(C)C [4-Hydroxyderricin, 4,2′-Dihydroxy-3′-prenyl-4′-methoxychalcone]	synergistically increasing the enhancing activity on glucose uptake	enhancement of 2-deoxy-[1,2-^3H(N)]-glucose uptake	amelioration effects for glucose tolerance were found	93 ± 2 mg/dL	224 ± 11 mg/dL	–	–	–	–	–	–	–
CC(C)=CCC/C(C)=C/Cc1c(O)ccc(C(=O)/C=C/c2ccc(O)cc2)c1O [Xanthoangelol, 4,2′,4′-Trihydroxy-3′-geranylchalcone]	–	–	–	–	–	action of ameliorating insulin resistance was found	lowered	192 ± 16 mg/dL	209 ± 8 mg/dL	no changes	249 ± 13 mg/dL	31 ± 7 ng/mL
